Patent publication US6737383B1, “Herbicidal oxadiazolidines” (priority 1999, dated 2004)

How the values were obtained:
bedstraw = assay: Test B pre/postemergence bedstraw; type: in vivo, Galium aparine; settings: Preemergence
Outline: (§1)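 Test chemicals in a non-phytotoxic solvent mixture with surfactant were sprayed preemergence onto planted seeds and postemergence onto plants 2 to 18 cm tall (1- to 4-leaf stage). After twelve to sixteen days in a greenhouse, injury was visually rated against untreated controls from 0 (no effect) to 10 (complete control).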

blackgrass = assay: Test B pre/postemergence blackgrass; type: in vivo, Alopecurus myosuroides
Outline: as §1

surinam grass = assay: Test B pre/postemergence surinam grass; type: in vivo, Brachiaria decumbens
Outline: as §1

cocklebur = assay: Test B pre/postemergence cocklebur; type: in vivo, Xanthium strumarium
Outline: as §1

corn = assay: Test B pre/postemergence corn; type: in vivo, Zea mays
Outline: as §1

crabgrass = assay: Test B pre/postemergence crabgrass; type: in vivo, Digitaria sanguinalis
Outline: as §1

giant foxtail = assay: Test B pre/postemergence giant foxtail; type: in vivo, Setaria faberii
Outline: as §1

morningglory = assay: Test B pre/postemergence morningglory; type: in vivo, Ipomoea hederacea
Outline: as §1

pigweed = assay: Test B pre/postemergence pigweed; type: in vivo, Amaranthus retroflexus
Outline: as §1

rape = assay: Test B pre/postemergence rape; type: in vivo, Brassica napus
Outline: as §1

soybean = assay: Test B pre/postemergence soybean; type: in vivo, Glycine max
Outline: as §1

sugar beet = assay: Test B pre/postemergence sugar beet; type: in vivo, Beta vulgaris
Outline: as §1

velvetleaf = assay: Test B pre/postemergence velvetleaf; type: in vivo, Abutilon theophrasti
Outline: as §1

wheat = assay: Test B pre/postemergence wheat; type: in vivo, Triticum aestivum
Outline: as §1

wild oat = assay: Test B pre/postemergence wild oat; type: in vivo, Avena fatua
Outline: as §1

purple nutsedge = assay: Test B pre/postemergence purple nutsedge; type: in vivo, Cyperus rotundus
Outline: as §1

rice = assay: Test B flood test rice; type: in vivo, Oryza sativa
Outline: (§2)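 Plants were grown to the 2-leaf stage before treatment with test chemical, then held in a greenhouse for twelve to sixteen days. Injury was visually rated against untreated controls on a 0–10 scale, where 0 is no effect and 10 is complete control.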

smallflower flatsedge = assay: Test B flood test smallflower flatsedge; type: in vivo, Cyperus difformis
Outline: as §2

duck salad = assay: Test B flood test duck salad; type: in vivo, Heteranthera limosa
Outline: as §2

bamyardgrass = assay: Test B flood test barnyardgrass; type: in vivo, Echinochloa crus-galli
Outline: as §2

[1] = Postemergence, Rate 62 g/ha, scale of 0 to 10, 0 is no effect, 10 is complete control
[2] = Postemergence, Rate 125 g/ha, scale of 0 to 10 where 0 is no effect and 10 is complete control
[3] = Postemergence, Rate 250 g/ha, scale of 0 to 10, 0 is no effect, 10 is complete control
[4] = Postemergence, Rate 500 g/ha, scale of 0 to 10 where 0 is no effect and 10 is complete control
[5] = Preemergence, Rate 62 g/ha, scale 0 to 10 (0 no effect, 10 complete control)
[6] = Preemergence, Rate 125 g/ha, scale of 0 to 10 where 0 is no effect and 10 is complete control
[7] = Preemergence, Rate 500 g/ha, scale of 0 to 10 where 0 is no effect and 10 is complete control
[8] = Rate 62 g/ha, flood test species, Pre-emergence, visual evaluation after twelve to sixteen days
[9] = Rate 125 g/ha, under heading Pre-emergence, flood test species, visual evaluation after twelve to sixteen days
[10] = Rate 250 g/ha, Pre-emergence (flood test species), scale 0 to 10, 0 is no effect, 10 is complete control
[11] = Rate 500 g/ha, Pre-emergence section of Table B, 0 to 10 scale (0 no effect, 10 complete control)

CC(=O)OCC(CCl)n1c(=O)on(C(=O)N(c2ccc(F)cc2)C(C)C)c1=O (centres unmarked) [Compound 596]
Bedstraw plant response rating (bedstraw; Rate 62 g/ha, scale 0 to 10 (0 no effect, 10 complete control)): 0 | Bedstraw plant response rating (bedstraw; Rate 125 g/ha, scale of 0 to 10 where 0 is no effect and 10 is complete control): 0 | Bedstraw plant response rating (0 to 10 scale) (bedstraw; Rate 250 g/ha): 0 | Bedstraw plant response rating (bedstraw; Rate 500 g/ha, scale of 0 to 10 where 0 is no effect and 10 is complete control): 0 | Blackgrass plant response rating (blackgrass; [1]): 0 | Plant response rating, Blackgrass (blackgrass; [2]): 0 | Blackgrass plant response rating (blackgrass; [3]): 0 | Plant response rating, Blackgrass (blackgrass; [4]): 0 | Blackgrass plant response rating (blackgrass; [5]): 0 | Blackgrass plant response rating (blackgrass; [6]): 0 | Blackgrass plant response rating (0 to 10 scale) (blackgrass; Preemergence, Rate 250 g/ha): 0 | Blackgrass plant response rating (blackgrass; [7]): 0 | B. signalgrass plant response rating (surinam grass; [1]): 0 | Plant response rating, B. signalgrass (surinam grass; [2]): 0 | B. signalgrass plant response rating (surinam grass; [3]): 0 | Plant response rating, B. signalgrass (surinam grass; [4]): 0 | B. signalgrass plant response rating (surinam grass; [5]): 0 | B. signalgrass plant response rating (surinam grass; [6]): 0 | B. signalgrass plant response rating (0 to 10 scale, 0 is no effect, 10 is complete control) (surinam grass; Preemergence, Rate 250 g/ha): 0 | B. signalgrass plant response rating (surinam grass; [7]): 0 | Cocklebur plant response rating (cocklebur; [1]): 0 | Plant response rating, Cocklebur (cocklebur; [2]): 0 | Cocklebur plant response rating (cocklebur; [3]): 0 | Plant response rating, Cocklebur (cocklebur; [4]): 0 | Cocklebur plant response rating (cocklebur; [5]): 0 | Cocklebur plant response rating (cocklebur; [6]): 0 | Cocklebur plant response rating (0 to 10 scale) (cocklebur; Preemergence, Rate 250 g/ha): 0 | Plant response rating, Cocklebur (cocklebur; [7]): 0 | Corn plant response rating (corn; [1]): 0 | Plant response rating, Corn (corn; [2]): 0 | Corn plant response rating (corn; [3]): 0 | Plant response rating, Corn (corn; [4]): 0 | Corn plant response rating (corn; [5]): 0 | Corn plant response rating (corn; [6]): 0 | Corn plant response rating (0 to 10 scale) (corn; Preemergence, Rate 250 g/ha): 0 | Plant response rating, Corn (corn; [7]): 0 | Crabgrass plant response rating (crabgrass; [1]): 0 | Plant response rating, Crabgrass (crabgrass; [2]): 0 | Crabgrass plant response rating (crabgrass; [3]): 0 | Plant response rating, Crabgrass (crabgrass; [4]): 2 | Crabgrass plant response rating (crabgrass; [5]): 0 | Crabgrass plant response rating (crabgrass; [6]): 0 | Plant response rating, Crabgrass (crabgrass; [7]): 6 | Giant foxtail plant response rating (giant foxtail; [1]): 0 | Plant response rating, Giant foxtail (giant foxtail; [2]): 0 | Giant foxtail plant response rating (giant foxtail; [3]): 0 | Plant response rating, Giant foxtail (giant foxtail; [4]): 3 | Giant foxtail plant response rating (giant foxtail; [5]): 0 | Giant foxtail plant response rating (giant foxtail; [6]): 0 | Plant response rating, Giant foxtail (giant foxtail; [7]): 4 | Morningglory plant response rating (morningglory; [1]): 0 | Plant response rating, Morningglory (morningglory; [2]): 0 | Morningglory plant response rating (morningglory; [3]): 0 | Plant response rating, Morningglory (morningglory; [4]): 2 | Morningglory plant response rating (morningglory; [5]): 0 | Morningglory plant response rating (morningglory; [6]): 0 | Plant response rating, Morningglory (morningglory; [7]): 0 | Plant response rating, Redroot pigweed (pigweed; [2]): 0 | Redroot pigweed plant response rating (pigweed; [3]): 0 | Plant response rating, Redroot pigweed (pigweed; [4]): 0 | Redroot pigweed plant response rating (pigweed; [5]): 0 | Redroot pigweed plant response rating (pigweed; [6]): 0 | Plant response rating, Redroot pigweed (pigweed; [7]): 0 | Rape plant response rating (rape; [1]): 0 | Plant response rating, Rape (rape; [2]): 0 | Rape plant response rating (rape; [3]): 0 | Plant response rating, Rape (rape; [4]): 0 | Rape plant response rating (rape; [5]): 0 | Rape plant response rating (rape; [6]): 0 | Plant response rating, Rape (rape; [7]): 0 | Plant response rating, Soybean (soybean; [2]): 2 | Soybean plant response rating (soybean; [3]): 2 | Plant response rating, Soybean (soybean; [4]): 3 | Soybean plant response rating (soybean; [5]): 0 | Soybean plant response rating (soybean; [6]): 0 | Plant response rating, Soybean (soybean; [7]): 0 | Plant response rating, Sugarbeets (sugar beet; [2]): 0 | Sugarbeets plant response rating (sugar beet; [3]): 0 | Plant response rating, Sugarbeets (sugar beet; [4]): 0 | Sugarbeets plant response rating (sugar beet; [5]): 0 | Sugarbeets plant response rating (sugar beet; [6]): 0 | Plant response rating, Sugarbeets (sugar beet; [7]): 0 | Plant response rating, Velvetleaf (velvetleaf; [2]): 0 | Velvetleaf plant response rating (velvetleaf; [3]): 0 | Plant response rating, Velvetleaf (velvetleaf; [4]): 0 | Velvetleaf plant response rating (velvetleaf; [5]): 0 | Velvetleaf plant response rating (velvetleaf; [6]): 0 | Plant response rating, Velvetleaf (velvetleaf; [7]): 0 | Plant response rating, Wheat (wheat; [2]): 0 | Wheat plant response rating (wheat; [3]): 0 | Plant response rating, Wheat (wheat; [4]): 0 | Wheat plant response rating (wheat; [5]): 0 | Wheat plant response rating (wheat; [6]): 0 | Plant response rating, Wheat (wheat; [7]): 0 | Plant response rating, Wild oats (wild oat; [2]): 0 | Wild oats plant response rating (wild oat; [3]): 0 | Plant response rating, Wild oats (wild oat; [4]): 0 | Wild oats plant response rating (wild oat; [5]): 0 | Wild oats plant response rating (wild oat; [6]): 0 | Plant response rating, Wild oats (wild oat; [7]): 0 | Nutsedge plant response rating (purple nutsedge; [1]): 0 | Plant response rating, Nutsedge (purple nutsedge; [2]): 0 | Plant response rating, Nutsedge (purple nutsedge; [4]): 0 | Nutsedge plant response rating (purple nutsedge; [5]): 0 | Nutsedge plant response rating (purple nutsedge; [6]): 0 | Plant response rating, Nutsedge (purple nutsedge; [7]): 0 | Plant response rating, Rice (0 to 10 scale, 0 is no effect, 10 is complete control) (rice; [8]): 0 | Rice plant response rating (0 to 10 scale, 0 is no effect, 10 is complete control) (rice; [9]): 0 | Rice plant response rating (rice; [10]): 0 | Rice plant response rating (rice; [11]): 0 | Plant response rating, S. Flatsedge (0 to 10 scale, 0 is no effect, 10 is complete control) (smallflower flatsedge; [8]): 0 | S. Flatsedge plant response rating (0 to 10 scale, 0 is no effect, 10 is complete control) (smallflower flatsedge; [9]): 0 | S. Flatsedge plant response rating (smallflower flatsedge; [10]): 0 | S. Flatsedge plant response rating (smallflower flatsedge; [11]): 0 | Plant response rating, Ducksalad (0 to 10 scale, 0 is no effect, 10 is complete control) (duck salad; [8]): 0 | Ducksalad plant response rating (0 to 10 scale, 0 is no effect, 10 is complete control) (duck salad; [9]): 0 | Ducksalad plant response rating (duck salad; [10]): 0 | Ducksalad plant response rating (duck salad; [11]): 0 | Plant response rating, Barnyardgrass (0 to 10 scale, 0 is no effect, 10 is complete control) (bamyardgrass; [8]): 0 | Barnyardgrass plant response rating (0 to 10 scale, 0 is no effect, 10 is complete control) (bamyardgrass; [9]): 0 | Barnyardgrass plant response rating (bamyardgrass; [10]): 0 | Barnyardgrass plant response rating (bamyardgrass; [11]): 0
